{"source": "ChEMBL document CHEMBL5385875", "about": "“Tumor killing by a dietary curcumin mono-carbonyl analog that works as a selective ROS generator via TrxR inhibition” (Eur J Med Chem, 2023)", "key": {"NCI-H460 [1]": {"tested_on": "NCI-H460", "experiment": "Induction of ROS accumulation in human NCI-H460 cells assessed as reduction in GSH levels by measuring yellow green fluorescence incubated for 9 hrs in presence of NAC by fluorescence microscope based analysis", "type": "functional, cell-based"}, "NCI-H460 [2]": {"tested_on": "NCI-H460", "experiment": "Cytotoxicity against human NCI-H460 cells assessed as reduction in cell viability at 0.5 to 2 uM incubated for 48 hrs in presence of alpha tocopherol by MTT assay", "type": "functional, cell-based", "conditions": "dose 0.5-2 µM"}, "[3]": {"experiment": "Toxicity in BALB/c nude mouse assessed as effect on liver at 5 to 15 mg/kg, ip measured every two days for 27 days by H and E staining based analysis", "type": "organism-based", "conditions": "in vivo, 648 h, dose 5-15 mg/kg, time 27 day"}, "[4]": {"experiment": "Toxicity in BALB/c nude mouse assessed as effect on kidney at 5 to 15 mg/kg, ip measured every two days for 27 days by H and E staining based analysis", "type": "organism-based", "conditions": "in vivo, 648 h, dose 5-15 mg/kg, time 27 day"}, "NCI-H460 [5]": {"tested_on": "NCI-H460", "experiment": "Upregulation of caspase-3 activation in human NCI-H460 cells at 1 to 2 uM measured after 48 hrs by immunoblot analysis", "type": "functional, cell-based", "conditions": "dose 1-2 µM"}, "NCI-H460 [6]": {"tested_on": "NCI-H460", "experiment": "Induction of intracellular ROS accumulation in human NCI-H460 cells at 1 to 2 uM measured after 6 hrs in presence of NAC by DCFH-DA dye based fluorescence assay", "type": "functional, cell-based", "conditions": "dose 1-2 µM"}, "[7]": {"experiment": "Toxicity in BALB/c nude mouse assessed as effect on animal diet status at 5 to 15 mg/kg, ip measured every two days for 27 days", "type": "organism-based", "conditions": "in vivo, 648 h, dose 5-15 mg/kg, time 27 day"}, "NCI-H460 [8]": {"tested_on": "NCI-H460", "experiment": "Cytotoxicity against human NCI-H460 cells assessed as reduction in cell viability at 0.5 to 1 uM measured after 48 hrs in presence of Z-VAD-fmk by MTT assay", "type": "functional, cell-based", "conditions": "dose 0.5-1 µM"}, "NCI-H460 [9]": {"tested_on": "NCI-H460", "experiment": "Induction of intracellular ROS accumulation in human NCI-H460 cells at 1 to 2 uM measured after 6 hrs in presence of VE by DCFH-DA dye based fluorescence assay", "type": "functional, cell-based", "conditions": "dose 1-2 µM"}, "NCI-H460 [10]": {"tested_on": "NCI-H460", "experiment": "Induction of intracellular ROS accumulation in human NCI-H460 cells at 0.5 to 2 uM by DCFH-DA dye based fluorescence assay", "type": "functional, cell-based", "conditions": "dose 0.5-2 µM, time 1-12 hrs, TDE = time-dependent effect"}, "NCI-H460 [11]": {"tested_on": "NCI-H460", "experiment": "Upregulation of Bax expression in human NCI-H460 cells at 1 to 2 uM measured after 48 hrs in presence of NAC by immunoblot analysis", "type": "functional, cell-based", "conditions": "dose 1-2 µM"}, "NCI-H460 [12]": {"tested_on": "NCI-H460", "experiment": "Antitumor activity against human NCI-H460 cells xenografted in BALB/c nude mouse assessed as downregulation of GPX4 expression at 5 to 15 mg/kg by immunohistochemical staining based analysis", "type": "functional, organism-based", "conditions": "dose 5-15 mg/kg"}, "NCI-H460 [13]": {"tested_on": "NCI-H460", "experiment": "Downregulation of Bcl-2 expression in human NCI-H460 cells at 1 to 2 uM measured after 48 hrs in presence of NAC by immunoblot analysis", "type": "functional, cell-based", "conditions": "dose 1-2 µM"}, "[14]": {"experiment": "Toxicity in BALB/c nude mouse assessed as effect on spleen at 5 to 15 mg/kg, ip measured every two days for 27 days", "type": "organism-based", "conditions": "in vivo, 648 h, dose 5-15 mg/kg, time 27 day"}, "NCI-H460 [15]": {"tested_on": "NCI-H460", "experiment": "Induction of ferroptosis in human NCI-H460 cells assessed as increase in intracellular […] by measuring increase in red fluorescence intensity at 0.5 uM incubated for 40 hrs in presence of NAC by C11-BODIPY staining based microscopy analysis", "type": "functional, cell-based"}, "NCI-H460 [16]": {"tested_on": "NCI-H460", "experiment": "Cytotoxicity against human NCI-H460 cells assessed as reduction in cell viability at 0.5 to 2 uM incubated for 48 hrs in presence of N-acetylcysteine by MTT assay", "type": "functional, cell-based", "conditions": "dose 0.5-2 µM"}, "NCI-H460 [17]": {"tested_on": "NCI-H460", "experiment": "Upregulation of caspase-3 activation in human NCI-H460 cells at 1 to 2 uM measured after 48 hrs in presence of NAC by immunoblot analysis", "type": "functional, cell-based", "conditions": "dose 1-2 µM"}, "NCI-H460 [18]": {"tested_on": "NCI-H460", "experiment": "Induction of ferroptosis in human NCI-H460 cells assessed as reduction in GPX4 protein expression at 1 to 2 uM measured after 24 hrs in presence of NAC by immunoblot analysis", "type": "functional, cell-based", "conditions": "dose 1-2 µM"}, "NCI-H460 [19]": {"tested_on": "NCI-H460", "experiment": "Upregulation of caspase-9 activation in human NCI-H460 cells at 1 to 2 uM measured after 48 hrs by immunoblot analysis", "type": "functional, cell-based", "conditions": "dose 1-2 µM"}, "NCI-H460 [20]": {"tested_on": "NCI-H460", "experiment": "Induction of apoptosis in human NCI-H460 cells assessed as reduction of mitochondrial membrane potential at 0.5 to 2 uM incubated for 12 to 36 hrs in presence of NAC by JC-1 staining based flow cytometry analysis", "type": "functional, cell-based", "conditions": "dose 0.5-2 µM, time 12-36 hrs"}, "MRC5": {"tested_on": "MRC5", "experiment": "Induction of ROS accumulation in human MRC5 cells assessed as reduction in GSH levels by measuring yellow green fluorescence incubated for 9 hrs by fluorescence microscope based analysis", "type": "functional, cell-based"}, "NCI-H460 [21]": {"tested_on": "NCI-H460", "experiment": "Cytotoxicity against human NCI-H460 cells assessed as reduction in cell viability at 0.5 to 1 uM measured after 48 hrs in presence of 3-methuladenine by MTT assay", "type": "functional, cell-based", "conditions": "dose 0.5-1 µM"}, "NCI-H460 [22]": {"tested_on": "NCI-H460", "experiment": "Upregulation of caspase-9 activation in human NCI-H460 cells at 1 to 2 uM measured after 48 hrs in presence of NAC by immunoblot analysis", "type": "functional, cell-based", "conditions": "dose 1-2 µM"}, "NCI-H460 [23]": {"tested_on": "NCI-H460", "experiment": "Downregulation of Bcl-2 expression in human NCI-H460 cells at 1 to 2 uM measured after 48 hrs by immunoblot analysis", "type": "functional, cell-based", "conditions": "dose 1-2 µM"}, "[24]": {"target": "Thioredoxin reductase (Homo sapiens) (UniProt Q16881+Q9NNW7+Q86VQ6)", "experiment": "Inhibition of TrxR in human MRC5 cells at 2 uM measured after 6 hrs by fluorescence microscopy based analysis", "type": "cell-based"}, "NCI-H460 [25]": {"tested_on": "NCI-H460", "experiment": "Upregulation of Bax expression in human NCI-H460 cells at 1 to 2 uM measured after 48 hrs by immunoblot analysis", "type": "functional, cell-based", "conditions": "dose 1-2 µM"}, "NCI-H460 [26]": {"tested_on": "NCI-H460", "experiment": "Inhibition of TrxR protein expression in human NCI-H460 cells measured after 6 hrs by immunoblot analysis", "type": "functional, cell-based", "conditions": "dose 0.5-2 µM"}, "NCI-H460 [27]": {"tested_on": "NCI-H460", "experiment": "Induction of apoptosis in human NCI-H460 cells assessed as reduction of mitochondrial membrane potential incubated for 12 to 36 hrs by JC-1 staining based flow cytometry analysis", "type": "functional, cell-based", "conditions": "dose 0.5-2 µM, time 12-36 hrs"}, "[28]": {"experiment": "Toxicity in BALB/c nude mouse assessed as effect on hair colour at 5 to 15 mg/kg, ip measured every two days for 27 days", "type": "organism-based", "conditions": "in vivo, 648 h, dose 5-15 mg/kg, time 27 day"}}, "note": "Calls of active or inactive are those of the source. The calls are words filed in the database; no cut-off is given here.", "data": [{"smiles": "O=C1/C(=C/c2cccc(C(F)(F)F)c2)CNC/C1=C\\c1cccc(C(F)(F)F)c1", "values": [{"measurement": "Activity", "setting": "NCI-H460 [1]", "value": "inactive"}, {"measurement": "Activity", "setting": "NCI-H460 [2]", "value": "inactive"}, {"measurement": "Activity", "setting": "[3]", "value": "Non-Toxic"}, {"measurement": "Activity", "setting": "[4]", "value": "Non-Toxic"}, {"measurement": "Activity", "setting": "NCI-H460 [5]", "value": "Active"}, {"measurement": "Activity", "setting": "NCI-H460 [6]", "value": "inactive"}, {"measurement": "Activity", "setting": "[7]", "value": "Non-Toxic"}, {"measurement": "Activity", "setting": "NCI-H460 [8]", "value": "Active"}, {"measurement": "Activity", "setting": "NCI-H460 [9]", "value": "inactive"}, {"measurement": "Activity", "setting": "NCI-H460 [10]", "value": "Tde"}, {"measurement": "Activity", "setting": "NCI-H460 [11]", "value": "inactive"}, {"measurement": "Activity", "setting": "NCI-H460 [12]", "value": "Active"}, {"measurement": "Activity", "setting": "NCI-H460 [13]", "value": "inactive"}, {"measurement": "Activity", "setting": "[14]", "value": "Non-Toxic"}, {"measurement": "Activity", "setting": "NCI-H460 [15]", "value": "inactive"}, {"measurement": "Activity", "setting": "NCI-H460 [16]", "value": "inactive"}, {"measurement": "Activity", "setting": "NCI-H460 [17]", "value": "inactive"}, {"measurement": "Activity", "setting": "NCI-H460 [18]", "value": "inactive"}, {"measurement": "Activity", "setting": "NCI-H460 [19]", "value": "Active"}, {"measurement": "Activity", "setting": "NCI-H460 [20]", "value": "inactive"}, {"measurement": "Activity", "setting": "MRC5", "value": "inactive"}, {"measurement": "Activity", "setting": "NCI-H460 [21]", "value": "inactive"}, {"measurement": "Activity", "setting": "NCI-H460 [22]", "value": "inactive"}, {"measurement": "Activity", "setting": "NCI-H460 [23]", "value": "Active"}, {"measurement": "inhibition", "setting": "[24]", "value": "inactive"}, {"measurement": "Activity", "setting": "NCI-H460 [25]", "value": "Active"}, {"measurement": "inhibition", "setting": "NCI-H460 [26]", "value": "Dose-Dependent Effect"}, {"measurement": "Activity", "setting": "NCI-H460 [27]", "value": "Dose-Dependent Effect"}, {"measurement": "Activity", "setting": "[28]", "value": "Non-Toxic"}]}]}
